Experimental data from patent US7247294B1, “Skin lightening agents, compositions and methods” (Conopco, Inc., priority 2006, dated 2007).

System: Melanoderm cultures
Experiment: Solvable Melanin Assay on Melanoderm cultures (3-D skin model)
Assay type: cell-based
Conditions: Melanoderm cultures fed every other day for 2 weeks, controls DMSO 1.292, untreated 1.259
Experimental: This experiment was carried out using Melanoderm cultures. Luminescence was measured using a chromameter to assay the degree of melanization of a 3-D skin model.
Method for Melanoderm Cultures
Melanoderm cultures were obtained from MatTek Corporation, Ashland, Mass. The Melanoderm was maintained according to the manufacturer's instructions. The basal media used for the maintenance of the Melanoderm cultures was DMEM supplemented with unspecified quantities of Epidermal growth factor, Insulin, Hydrocortisone, and proprietary epidermal differentiation compounds, in addition to anti-fungal and antibiotics.
For the long term maintenance of the Melanoderms, the basal media was supplemented with both bFGF and a-MSH, compounds which are stimulators of melanocyte growth and melanogenesis. The cultures were fed every other day for a total of 2 weeks—fresh active preparations, prepared in DMSO or culture media, were also applied to the Melanoderms when feeding was performed. Each treatment condition was done in duplicate and digital photographs were taken of the Melanoderm cultures to assess overall pigmentation. As well, microscopic images of the Melanoderms were done to assess the cell viability of the keratinocytes and melanocytes. For further evidence that the treatments were/not cytotoxic, an LDH assay (Promega, Madison, Wis.) was performed on the supernatants from 24 hour post-treatment cultures.
To prepare tissues for assay:
After treatment, tissues are usually frozen until completion of the experiment. Thaw tissues, a few at a time and place in D-PBS to remove excess phenol red from the culture medium and residual test article. Remove a single tissue from the insert. Blot dry and place in 1.7 ml. microfuge tube. Repeat for all samples. Add 250 ul Solvable™ (Tissue and Gel Solubilizer 0.5 M—Packard BioScience Co. Catalogue No. 6NE9100 (NEF910)). Close the tube and make sure that the tissue is completely submerged. Incubate at 60° C. overnight along with standards. In the morning, vortex the samples. Sometimes thick tissues will require additional time to complete the solution process. To prepare standard: Dissolve Melanin (Sigma cat. M 8631) in Solvable at 1 mg/ml. The solution may be warmed gently for 15 minutes at 37° C. Store solution in dark. To prepare standard curve: Prepare dilutions from the standard containing 0 ug to 250 ug of melanin in a total of 250 ul Solvable. Incubate dilutions along with samples. To read assay: Cool samples and standards. Centrifuge at 13,000 rpm for 5 minutes to pellet. Fill microwell plate (C-96) with 200 ul each of samples and standards. There is some foaming of samples when pipetted. Blow gently across the samples to break bubbles prior to reading the plate. Read plate at […].

O=c1oc2cc(O)ccc2cc1-c1ccccc1 [7-hydroxy-3-phenylcoumarin]
OD = 490 nm (melanin content) (25 uM): 1.674 | OD = 490 nm (melanin content) (50 uM): 1.339 | OD = 490 nm (melanin content) (75 uM): 0.849 | OD = 490 nm (melanin content) (100 uM): 0.293
